In paper PMC3942486, “The Ansamycin Antibiotic, Rifamycin SV, Inhibits BCL6 Transcriptional Repression and Forms a Complex with the BCL6-BTB/POZ Domain” (PLoS ONE, 2014):
pKd: −log10 of the molar value.

Legend:
Type in all cases: binding
BCL6-POZ domain [1] = molecular target: T1, BCL6-POZ domain (Homo sapiens, UniProt P41182, C67R/C84N/C8Q); assay: X-ray crystal structure ([…] Å); 1H-15N TROSY-HSQC NMR titration
T1 construct: POZ domain (residues 7 to 128)

BCL6-POZ domain [2] = molecular target: T2, BCL6-POZ domain (Homo sapiens, UniProt P41182, C8Q/C67R/C84N); assay: 1H-15N TROSY-HSQC NMR chemical shift perturbation; also relieves BCL6 repression in HEK293T luciferase reporter assay
T2 construct: POZ domain (residues 7 to 128)

BCL6-POZ domain [3] = molecular target: T2, BCL6-POZ domain; assay: 1H-15N TROSY-HSQC NMR chemical shift perturbation
BCL6-POZ domain [4] = molecular target: T2, BCL6-POZ domain; assay: 1H-15N TROSY-HSQC NMR chemical shift perturbation (weakest of the series)

SMILES: CO[C@H]1/C=C/O[C@@]2(C)Oc3c(C)c(O)c4c(c3C2=O)C2=NC3(CCN(CC(C)C)CC3)NC2=C(NC(=O)/C(C)=C\C=C\[C@H](C)[C@H](O)[C@@H](C)[C@@H](O)[C@@H](C)[C@H](OC(C)=O)[C@@H]1C)C4=O [rifabutin]
- pKd (BCL6-POZ domain [1]): ~3.00

SMILES: CO[C@H]1/C=C/O[C@@]2(C)Oc3c(C)c(O)c4c(O)c(cc(O)c4c3C2=O)NC(=O)/C(C)=C\C=C\[C@H](C)[C@H](O)[C@@H](C)[C@@H](O)[C@@H](C)[C@H](OC(C)=O)[C@@H]1C [rifamycin SV]
- 1H-15N TROSY-HSQC NMR chemical shift perturbation; also relieves BCL6 repression (BCL6-POZ domain [2]): resulted in a subset of peaks shifting in a concentration dependent manner

SMILES: CO[C@H]1/C=C/O[C@@]2(C)Oc3c(C)c(O)c4c(O)c(c(/C=N/N5CCN(C)CC5)c(O)c4c3C2=O)NC(=O)/C(C)=C\C=C\[C@H](C)[C@H](O)[C@@H](C)[C@@H](O)[C@@H](C)[C@H](OC(C)=O)[C@@H]1C [rifampicin]
- 1H-15N TROSY-HSQC NMR chemical shift perturbation (BCL6-POZ domain [3]): These derivatives all caused spectral changes of varying magnitude with the greatest shifts caused by rifabutin

SMILES: CO[C@H]1/C=C/O[C@@]2(C)Oc3c(C)c(O)c4c(O)c(c5c(nc6cc(C)ccn65)c4c3C2=O)NC(=O)/C(C)=C\C=C\[C@H](C)[C@H](O)[C@@H](C)[C@@H](O)[C@@H](C)[C@H](OC(C)=O)[C@@H]1C [rifaximin]
- 1H-15N TROSY-HSQC NMR chemical shift perturbation (weakest of the series) (BCL6-POZ domain [4]): order of binding from weakest to strongest was: rifaximin, rifapentine, 3-formyl rifamycin, rifampicin, rifamycin SV and rifabutin

SMILES: CO[C@H]1/C=C/O[C@@]2(C)Oc3c(C)c(O)c4c(O)c(c(/C=N/N5CCN(C6CCCC6)CC5)c(O)c4c3C2=O)NC(=O)/C(C)=C\C=C\[C@H](C)[C@H](O)[C@@H](C)[C@@H](O)[C@@H](C)[C@H](OC(C)=O)[C@@H]1C [rifapentine]
- 1H-15N TROSY-HSQC NMR chemical shift perturbation (BCL6-POZ domain [3]): order of binding from weakest to strongest was: rifaximin, rifapentine, 3-formyl rifamycin, rifampicin, rifamycin SV and rifabutin
